The test system of experiment [1] is P. falciparum parasite line, 3D7. The experiment is described as follows: microbe, parasite or virus in culture. Particulars: P. falciparum 3D7 blood-stages, 0.1% initial parasitemia. The class given is cell-based, Plasmodium falciparum. The protocol: FIG. 9 exemplifies a dose-dependent effect of CR-mimetic compounds on human P. falciparum blood-stages. Synchronized cultures were set at 0.1% initial parasitemia, treated with the various compounds and analysed by flow cytometry after SYBR Green labelling of parasite DNA at 72 hours or 96 hours post-treatment. Data (mean±sem) was […] to the untreated control on each experiment (3-5 independent experiments/compound). IC50 values were determined by GraphPad. Prism using non-linear regression variable slope (normalized) analysis. […] Data for rsv and SRT1720 was collected at 72 hours post-treatment, and 96 hours for all the other compounds.
Example 7. Dose-dependent effect of CR-mimetic compounds on human P. falciparum blood-stages. Synchronized cultures of the P. falciparum parasite line, 3D7, were set at 0.1% initial parasitemia, treated with the various compounds and analysed by flow cytometry after SYBR Green labelling of parasite DNA at 72 hours or 96 hours post-treatment. […] Data for rsv and SRT1720 were collected at 72 hours post-treatment, and 96 hours for all the other compounds.
P. falciparum 3D7 was continuously cultured in human erythrocytes at 4% hematocrit in RPMI 1640 supplemented with 0.5% Albumax II (Invitrogen), […] Hypoxanthine (Sigma) and 20 μg/ml Gentamicin (Invitrogen). Cultures were maintained at 37° C. in an atmosphere of 5% O2, 5% CO2, 90% N2, and synchronized by consecutive treatments of 5% Sorbitol (Sigma), for dose-response analysis, serial dilutions of the compounds were added to synchronized ring-stages of P. falciparum in 96-well plates. Initial parasitemia was set to 0.1% and hematocrit 2%. Parasite replication and reinvasion were assessed at the indicated time by flow cytometry based on fluorescent labelling of P. falciparum DNA. The SYBR Green I (Invitrogen) stained samples were analysed on a CyFlow® SL Blue or Accuri® BD flow cytometer and the data evaluated using FlowJo software (TreeStar) to determine the percentage of infected erythrocytes. IC50 values were calculated using GraphPad Prism.

For experiment [2], the system named is P. berghei sporozoites. The experiment is described as follows: Survival of P. berghei sporozoite-infected mice. The class given is in vivo, C57BL/6 mice. Particulars: 15-day period. From the text: FIG. 6 exemplifies that treatment with AMPK agonists protects P. berghei infected mice from severe malaria, leading to improved survival, C57BL/6 mice were infected and treated as in FIG. 5 (≥10 mice/group; p<0.05).
Example 4. Improved survival of parasite-infected mice treated with AMPK agonists. To determine the effect of the AMPK activators, salicylate and metformin, on animal survival over a 15-day period following parasite infection, C57BL/6 mice were infected by i.d. injection of 5×10^3 P. berghei sporozoites. Salicylate (300 mg/Kg, Sigma No. 71945) was administered by i.p. injection once daily, starting one hour before infection. Metformin (500 mg/Kg. Sigma No D150959) was provided in the drinking water for one week prior to, and during, infection.

Experiment [3] has as its system P. berghei sporozoites. The experiment is described as follows: Relative parasitemia after P. berghei sporozoite (liver-stage) infection of mice. Particulars: 72 h.p.i., vs control. Type of experiment: in vivo, C57BL/6 mice.
Description: Relative parasitemia in C57BL/6 mice that were infected with freshly dissected P. berghei sporozoites, and treated with salicylate or metformin, or maintained under control conditions. Salicylate (300 mg/Kg) was administered by i.p. injection once daily, starting one hour before infection, Metformin (500 mg/Kg) was provided in the drinking water for one week prior and during infection, (≥10 mice/group; each dot represents, one mouse). ***p<0.001; ****p<0.0001.
Parasitemia was determined by flow cytometry analysis (BD FACSCAlibur200 or BD LSRFortessa®) of one drop of tail blood in PBS from C57BL/6 mice that were infected with GFP-expressing P. berghei parasites, and maintained on either AL or CR diets. Analysis on FlowJo® followed. The number of acquired total events ranged from 100-200 thousand. […] The GFP-expressing parasites were detected in the FITC channel. False GFP positive ceils (erythrocyte's auto-fluorescence) were eliminated by plotting FITC against PE.
Relative parasitemia in C57BL/6 mice at 72 hours post infection (h.p.i) with freshly dissected P. berghei sporozoites, was determined by flow cytometry analysis (as described in Example 1) for mice treated with either salicylate or metformin, or maintained under control, untreated conditions. […]
Experiment [4] deals with P. berghei wild-type (wt) and complemented Δkin (Δkin+kin) parasites. The experiment is described as follows: In vitro schizont maturation, merozoites per segmented schizont (wild-type and complemented Δkin). Type of experiment: cell-based, Plasmodium berghei. Conditions: 625 μM, 24 h in vitro, medium with 25% fetal bovine serum. The protocol: (§1) FIG. 7A exemplifies microscopy analysis and quantification of the number of merozoites per segmented schizont in P. berghei wild-type (wt), Δkin and complemented Δkin (Δkin+kin) parasites. Blood-stage parasites were allowed to mature for 24 hours into schizonts in vitro with medium supplemented with AL and CR sera. KIN is the AMPK homologue in Plasmodium parasites. ****p<0.0001.
(§2) Example 5. The AMPK homologue, KIN, regulates the CR effect in Plasmodium parasites. P. berghei parasite wild-type respond to CR by decreasing the number of daughter merozoites on each cycle. […] The CR effect phenotype can be rescued by reintroducing the kin gene into Δkin parasite line.
(§3) P. berghei blood-stage parasites can be maintained in vitro for only one developmental cycle (20-24 h), in which ring forms develop into mature schizonts, without bursting. Infected blood was obtained from in vivo infections containing mainly ring-stage forms at 1-3% parasitemia. Parasites were cultured in RPMI1640 medium containing 25 mM HEPES, 0.05 mg/ml Gentamicin or Penicillin/Streptomycin (all Gibco/Invitrogen), in 96-well plates. […] Parasite development and the number of merozoites per schizont were then assessed using light microscopy and image (http://rsbweb.nih.gov/ij/). Only mature schizont (segmenters) with clearly separated merozoites were scored.

The test system of experiment [5] is P. berghei Δkin parasites. As to the kind of experiment: In vitro schizont maturation, merozoites per segmented schizont (Δkin). The class given is cell-based, Plasmodium berghei. Particulars: 24 h in vitro, medium with 25% fetal bovine serum. As to the method:
as §1, §2, §3

The subject of experiment [6] is AMPKα (pAMPKα T172). The experiment is described as follows: Western blot of AMPK phosphorylation in liver homogenates. Type of experiment: in vivo, C57BL/6 mice. Particulars: non-infected mice, 1 hr after injection, vs vehicle. An excerpt:
Western blot analysis of liver homogenates from non-infected mice in AL and DR diets (top panel), and non-infected mice 1 hr after injection of salicylate or vehicle (bottom panel). Lane numbers 1-3 correlate to liver homogenates from individual mice. Representative blot probing with anti-phospho AMPKα (pAMPKα^T172), and -actin antibodies.
Example 2. […] Western blot analysis of AMPK phosphorylation in liver homogenates from non-infected C57BL/6 mice in AL end DR diets, and non-infected mice one hour after injection of salicylate or vehicle. Livers were homogenized in ice-cold lysis buffer (50 mM HEPES, 150 mM NaCl, 10 mM NaF, 1 mM Sodium pyrophosphate, 0.5 mM EDTA, 1 mM DTT, 1% triton, 1 mM Na3VO4, 250 mM Sucrose, protease inhibitor cocktail and phosphatase inhibitors). Total protein content in each homogenate was measured by Bradford Assay (Bio-Rad), according to manufacturer's instructions. 50 μg of total liver lysates were resolved on either 8% SDS-PAGE or Any kD™ Mini-PROTEAN® precast gels (Bio-Rad) and transferred to a nitrocellulose membrane using standard wet transfer with 1× Tris-Glycine buffer containing 20% methanol for 2 hr at 100 V constant or were transferred using iBlot® gel Transfer Stacks (ThermoFisher). […]
pAMPK was detected using rabbit anti-phospho-AMPKα T172 (mAb 40H9.1:1000, Cell Signaling Technology) (incubation for overnight at 4° C). […]

[7] abbreviates: 300 mg/Kg i.p. once daily, starting one hour before infection.

Entries after “also recorded” stand apart in the source; their conditions may differ.

The compound `N#Cc1c(O)c2c(-c3ccc(-c4ccccc4O)cc3)csc2[nH]c1=O` [A769662] yielded an IC50 in experiment [1] (96 hours post-treatment) of 71 µM.

In turn, `O=C(Nc1ccccc1-c1cn2c(CN3CCNCC3)csc2n1)c1cnc2ccccc2n1` [SRT1720] yielded an IC50 in experiment [1] (72 hours post-treatment) of 0.786 µM.

In the case of `CN(C)C(=N)N=C(N)N` [metformin], in experiment [1] (Plasmodium falciparum, 96 hours post-treatment), 868 µM corresponded to half-maximal inhibition (IC50). For the same compound, the Survival rate result in experiment [2] (500 mg/Kg in drinking water for one week prior to and during infection) is “significant increases in the survival rates”. Also, the “Relative parasitemia (liver-stage infection)” value in experiment [3] (500 mg/Kg in drinking water for one week prior and during infection) is “reduction of P. berghei liver-stage infection”.

Regarding `Oc1ccc(C=Cc2cc(O)cc(O)c2)cc1` [resveratrol], in experiment [1] (Plasmodium falciparum, 72 hours post-treatment), the IC50 worked out at 32 µM.

With `O=C(O)c1ccccc1O` [salicylate], the “Parasite replication (merozoites per schizont)” value in experiment [4] is listed as “reduced parasite replication; also recorded: reduce replication”; in experiment [5], “fail to respond”. In experiment [1] (96 hours post-treatment), the IC50 was 1300 µM. Also, the Survival rate result in experiment [2] (setting [7]) is “significant increases in the survival rates”. For the same compound, the “AMPK phosphorylation (pAMPKα T172) in liver” value in experiment [6] is recorded as “activation of AMPK”. In addition, in experiment [3] (setting [7]), the “Relative parasitemia (liver-stage infection)” value was “reduction of P. berghei liver-stage infection”.

For the origin of these results see US20190054096A1, “METHODS FOR A[…] VIRULENCE” (priority 2015, published 2019).
